Reference: article PMC6386767, “Characterization of recombinant fructose-1,6-bisphosphatase gene mutations: evidence of inhibition/activation of FBPase protein by gene mutation” (Bioscience Reports, 2019)
Residue numbers refer to the chain shown, from its start.

What was measured:
pig kidney FBPase K112A = molecular target: T1, pig kidney FBPase K112A (Sus scrofa, UniProt P00636, K113A); assay: Malachite Green kinetic assay, K112A mutant; type: biochemical; conditions: enzyme K112A vs WT
T1 construct: His6 (C); made in house; host or cells: Escherichia coli BL21 (DE3)
T1 sequence (P00636 1-338 K113A): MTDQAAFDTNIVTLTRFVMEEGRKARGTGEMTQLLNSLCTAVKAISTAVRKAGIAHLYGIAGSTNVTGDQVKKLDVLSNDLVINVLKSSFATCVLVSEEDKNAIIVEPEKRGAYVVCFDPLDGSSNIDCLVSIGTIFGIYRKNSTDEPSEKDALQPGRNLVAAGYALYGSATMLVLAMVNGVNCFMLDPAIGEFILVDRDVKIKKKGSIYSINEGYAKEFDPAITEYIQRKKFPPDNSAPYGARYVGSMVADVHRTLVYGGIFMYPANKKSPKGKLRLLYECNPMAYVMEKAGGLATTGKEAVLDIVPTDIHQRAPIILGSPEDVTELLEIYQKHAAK
Method: (§1) For the kinetic assay, a standard curve was obtained from an ammonium molybdate Malachite Green inorganic phosphate assay (OD660 nm). The purified FBPase protein was dialyzed ×3 in 50 mM Tris buffer at pH 7.5 at 4°C. For enzyme concentration, absorbency values were recorded for all five mutant proteins using spectrophotometer readings at OD280 nm. To quantitate enzyme concentration, the enzymes were calculated based on the quantity of micrograms per microliter (µg/µl) present. Final concentration of WT and mutant enzymes was between 2.5 and 5.0 µg/µl. Using a colorimetric assay as described below, specific activity (SA) was determined. At last, all kinetic and binding assays described below were performed in 50 mM Tris pH 7.5.
(§2) Kinetic assays were performed for WT and mutant enzymes to identify functional differences between the WT enzyme and the mutants. […] Readings recorded at OD660 nm for each enzyme were applied to the standard curve equation. Micromoles of inorganic phosphate were calculated to determine the SA of mutant enzymes.
(§3) For each clone, the kinetic assay was performed in duplicates of triplicates. Malachite Geen was used to detect inorganic phosphate. Two separate clones were processed independently of the same mutant. All kinetic data were fit to symmetric sigmoidal curve using Origin software based on methods previously described [[27–29]]. More specifically, for kinetic parameters established via curve fitting (shown in Tables 1–3; and in Figure 5A,B), the equation y = d + (a − d)/1 + (x/c)^b was used where ‘x’ is represented by apparent Michelis constant (Km) when y = Vmax. […] P-values were significant at <0.001 and represent a comparison with the WT enzyme.

pig kidney FBPase Y113A = molecular target: T2, pig kidney FBPase Y113A (Sus scrofa, UniProt P00636, Y114A); assay: Malachite Green kinetic assay, Y113A mutant; type: biochemical; conditions: enzyme Y113A vs WT
T2 construct: His6 (C); made in house; host or cells: Escherichia coli BL21 (DE3)
T2 sequence (P00636 1-338 Y114A): T1 sequence (P00636 1-338 K113A) with A113K, Y114A
Method: as §1, §2, §3

In the case of O=C(COP(=O)(O)O)[C@@H](O)[C@H](O)[C@H](O)COP(=O)(O)O [FBP, fructose-1,6-bisphosphate], the “greater binding to the FBP substrate compared with WT” value (pig kidney FBPase K112A) is reported as 2 × and the “greater binding to the FBP substrate compared with WT” value (pig kidney FBPase Y113A) is reported as 2 ×.
